{"source": "patent US9550776B2", "about": "“Pyridinylpyrazoloquinoline compounds” (Eisai R&D Management Co., Ltd., priority 2013, dated 2017)", "key": {"[1]": {"tested_on": "hippocampal cGMP", "experiment": "Effect on rodent hippocampal cGMP", "assay_type": "in vivo", "conditions": "rat (LE), 10 mg/kg p.o., sampling time 2 hr", "protocol": "The test compound was administered to Sprague-Dawley male rats (Charles River Laboratories Japan, Inc.) or Long-Evans male rats (Institute for Animal Reproduction) and then the animals were sacrificed with microwave under pentobarbital anesthesia, and the hippocampus was extracted. After measuring the wet weight, the hippocampus was frozen with liquid nitrogen and stored at −80° C. In the measurement of cGMP in the hippocampus, a 0.5 M perchloric acid/1 mM EDTA solution was added at 5% (w/v) based on the wet weight, and the mixture was homogenized. After the homogenization, the homogenate was centrifuged (10000 rpm, 15 min), and the supernatant was collected. The collected supernatant was neutralized with a 2 M potassium bicarbonate solution and centrifuged (13000 rpm, 10 min). The cGMP concentration in the supernatant was measured in accordance with the non-acetylation EIA procedure of cGMP EIA kit (GE Healthcare). The result was an increase (C) in the amount of cGMP of the test compound-administered group (B) relative to the amount of cGMP of the vehicle-administered group (A), and was calculated using the following formula. cGMP increase(C)=[(B)−(A)]/(A)×100(%)"}, "[2]": {"tested_on": "cerebrospinal fluid cGMP", "experiment": "Effect on rodent cerebrospinal fluid cGMP", "assay_type": "in vivo", "conditions": "rat (LE), 10 mg/kg p.o., sampling time 2 hr", "protocol": "The test compound was administered to ICR male mice (Charles River Laboratories Japan, Inc.), Sprague-Dawley male rats (SD) (Charles River Laboratories Japan, Inc.) or Long-Evans male rats (LE) (Institute for Animal Reproduction), and the cerebrospinal fluid was then collected under pentobarbital anesthesia and stored at −20° C. cGMP in the cerebrospinal fluid was measured in accordance with the acetylation EIA procedure of cGMP EIA kit (GE Healthcare) or the non-acetylation procedure of cGMP EIA kit (Cayman). The result was an increase (C) in the amount of cGMP of the test compound-administered group (B) relative to the amount of cGMP of the vehicle-administered group (A), and was calculated using the following formula. cGMP increase(C)=[(B)−(A)]/(A)×100(%)"}, "[3]": {"target": "T1, human recombinant PDE9 protein (Homo sapiens, UniProt O76083)", "T1 construct": "made in house; host or cells: silkworm (pYNG vector, Katakura Industries)", "T1 sequence (O76083 whole entry, the tested form may be a part)": "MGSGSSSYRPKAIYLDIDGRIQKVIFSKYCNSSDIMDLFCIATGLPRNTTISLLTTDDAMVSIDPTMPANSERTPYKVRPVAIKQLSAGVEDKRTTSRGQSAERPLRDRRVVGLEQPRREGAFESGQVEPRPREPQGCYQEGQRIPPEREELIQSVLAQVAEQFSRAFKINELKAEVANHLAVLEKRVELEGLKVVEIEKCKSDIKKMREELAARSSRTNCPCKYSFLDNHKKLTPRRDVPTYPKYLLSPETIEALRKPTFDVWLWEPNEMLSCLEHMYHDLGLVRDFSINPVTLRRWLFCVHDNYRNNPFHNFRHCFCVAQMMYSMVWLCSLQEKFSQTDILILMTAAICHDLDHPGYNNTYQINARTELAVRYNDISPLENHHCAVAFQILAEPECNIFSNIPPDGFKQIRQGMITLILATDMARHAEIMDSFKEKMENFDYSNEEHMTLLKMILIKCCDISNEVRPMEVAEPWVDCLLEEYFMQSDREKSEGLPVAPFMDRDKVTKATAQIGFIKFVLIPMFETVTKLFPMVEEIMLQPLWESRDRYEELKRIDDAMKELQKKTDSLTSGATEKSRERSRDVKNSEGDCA", "experiment": "PDE9 inhibitory activity test ([3H]-cGMP hydrolysis)", "assay_type": "biochemical", "protocol": "An hsPDE9A 1cDNA fragment was amplified by being based on a base sequence (Accession No.: AF048837) of the hsPDE9A1 registered on GenBank data base, and by using the following sequences (Hokkaido System Science Co., Ltd.) as a primer and Human hippocampus cDNA library (Clontech Laboratories, Inc.) as a template DNA, and using Pfu50 DNA polymerase (Invitrogen Corp.), and by a polymerase chain reaction (PCR) of the following condition.\nThe condition of PCR: [96° C., 5 min]×1 cycle, [(96° C., 10 sec), (57° C., 5 sec), (72° C., 2 min)]×30 cycles\nThe obtained hsPDE9A 1cDNA fragment was incorporated in a TOPO-TA cloning vector (Invitrogen Corp.), and the base sequence was checked; and thereafter, the resultant was transfected in a pcDNA 3.1/myc His-tag vector (Invitrogen Corp.) to thereby make a human PDE9 expression vector for mammal cells. The human PDE9 expression vector for mammal cells was transfected with transient expression to an HEK293 cell by using a LIPOFETAMINE 2000 Reagent (Gibco). It was confirmed by Western blot method that the PDE9A expressed in the HEK293 cell, and then, the human PDE9A 1cDNA fragment was transfected in a pYNG vector (Katakura Industries Co., Ltd.) to thereby make an expression vector for insect cells. A supernatant of homogenized silk worm in which a large amount of PDE9 was expressed was purified by an equilibrated Ni column using a buffer A (20 mmol/L Tris-HCl, pH: 8.0, 1 mmol/L DTT, 10 mmol/L imidazole). After 1 hour of mixing of the supernatant and the Ni column, cleaning was carried out using a buffer B (20 mmol/L Tris-HCl, pH: 8.0, 1 mmol/L DTT), and elution was carried out using a buffer C (20 mmol/L Tris-HCl, pH: 8.0, 1 mmol/L DTT, 100 mmol/L imidazole). An elution fraction was preparatively collected to thereby obtain a PDE9 enzyme solution.\nTo 100 μL of a buffer D (40 mmol/L Tris-HCl, pH: 7.4, 10 mmol/L MgCl2, 1 mM DTT, 2 μM cGMP) solution containing [^3H]-cGMP (0.5 μCi/mL), 10 μL of a compound solution for evaluation (a solution in which a compound was dissolved in DMSO and diluted so that the DMSO concentration became 5%) and 90 μL of a solution prepared by diluting the PDE9 enzyme solution prepared in the above with a buffer E (40 mmol/L Tris-HCl, pH: 7.4, 10 mmol/L MgCl2, 1 mM DTT, 1 mmol/L EGTA) were added under ice cooling. The resultant mixed solution was incubated at 30° C. for 10 min, and thereafter heated for 2 min in boiled water to stop the enzyme reaction of the PDE9. Then, the resultant was returned to room temperature; 50 μL of 5′-Nucleotidase (Biomol GmbH, 10 units/mL) was added thereto; and the resultant was incubated at 30° C. for 10 min to thereby convert [^3H]-5′-GMP formed in the previous reaction to [^3H]-guanosine. 500 μL of an anion exchange resin (Bio-Rad AGl-X2 resin, mesh size: 200-400, H2O:resin=2:1) was added to the resultant reaction liquid, and allowed to stand for 10 min, and thereafter centrifuged (2,000 rpm, 10 min); and a supernatant in which the [^3H]-guanosine was present was transferred to a LumaPlate (PerkinElmer, Inc.), and the radioactivity was measured by a TopCount NXT microplate scintillation and luminescence counter (PerkinElmer, Inc.).\nThe inhibition percentage of the evaluation compound was calculated using the following expression, taking the radioactivity of a control containing no evaluation compound to be (A), the radioactivity of a blank containing no enzyme to be (B), and the radioactivity of the evaluation compound to be (C). Inhibition percentage=100−{[(C)−(B)]/[(A)−(B)]}×100(%)\nThe IC50 value for PDE9 of the evaluation compound was determined from inhibition percentage for various concentrations."}}, "data": [{"molecule": "(−)-7-(6-Methoxy-2,4-dimethylpyridin-3-yl)-1-((3R*,4R*)-3-methyltetrahydro-2H-pyran-4-yl)-1H-pyrazolo[4,3-c]quinoline-4(5H)-one [Example 1b]", "values": [{"measurement": "% hippocampal cGMP increase from vehicle control", "setting": "[1]", "result": 44, "unit": "%"}, {"measurement": "% CSF cGMP increase from vehicle control", "setting": "[2]", "result": 147, "unit": "%"}, {"measurement": "IC50", "setting": "[3]", "result": 13.6, "unit": "nM"}]}, {"molecule": "(+)-7-(2-Methoxy-3,5-dimethylpyridin-4-yl)-1-((3R*,4R*)-3-methyltetrahydro-2H-pyran-4-yl)-1H-pyrazolo[4,3-c]quinoline-4(5H)-one [Example 3b]", "values": [{"measurement": "IC50", "setting": "[3]", "result": 25.6, "unit": "nM"}]}, {"molecule": "(−)-7-(2-methoxy-3,5-dimethylpyridin-4-yl)-1-((3R*,4R*)-3-methyltetrahydro-2H-pyran-4-yl)-1H-pyrazolo[4,3-c]quinoline-4(5H)-one [Example 3a]", "values": [{"measurement": "% hippocampal cGMP increase from vehicle control", "setting": "[1]", "result": 58, "unit": "%"}, {"measurement": "% CSF cGMP increase from vehicle control", "setting": "[2]", "result": 200, "unit": "%"}, {"measurement": "IC50", "setting": "[3]", "result": 6.9, "unit": "nM"}]}, {"molecule": "COc1ncc(C)c(-c2ccc3c(c2)[nH]c(=O)c2cnn([C@H]4CC[C@@H](OC)CC4)c23)c1C", "note": "[Example 5a, 7-(2-methoxy-3,5-dimethylpyridin-4-yl)-1-(cis-4-methoxycyclohexyl)-1H-pyrazolo[4,3-c]quinoline-4(5H)-one]", "values": [{"measurement": "IC50", "setting": "[3]", "result": 9.8, "unit": "nM"}]}, {"molecule": "(+)-7-(6-methoxy-2,4-dimethylpyridin-3-yl)-1-((3R*,4R*)-3-methyltetrahydro-2H-pyran-4-yl)-1H-pyrazolo[4,3-c]quinoline-4(5H)-one [Example 1a]", "values": [{"measurement": "IC50", "setting": "[3]", "result": 48, "unit": "nM"}]}, {"molecule": "(+)-7-(6-Methoxy-2,4-dimethylpyridin-3-yl)-1-((3R*,4S*)-3-methyltetrahydro-2H-pyran-4-yl)-1H-pyrazolo[4,3-c]quinoline-4(5H)-one [Example 1c]", "values": [{"measurement": "IC50", "setting": "[3]", "result": 87.2, "unit": "nM"}]}, {"molecule": "(−)-7-(2-Methoxy-3,5-dimethylpyridin-4-yl)-1-((3R*,4S*)-3-methyltetrahydro-2H-pyran-4-yl)-1H-pyrazolo[4,3-c]quinoline-4(5H)-one [Example 4a]", "values": [{"measurement": "IC50", "setting": "[3]", "result": 5.8, "unit": "nM"}]}, {"molecule": "(+)-7-(2-Methoxy-3,5-dimethylpyridin-4-yl)-1-((3R*,4S*)-3-methyltetrahydro-2H-pyran-4-yl)-1H-pyrazolo[4,3-c]quinoline-4(5H)-one [Example 4b]", "values": [{"measurement": "IC50", "setting": "[3]", "result": 39.1, "unit": "nM"}]}, {"molecule": "(−)-7-(2-Methoxy-4,6-dimethylpyridin-3-yl)-1-((3R*,4S*)-3-methyltetrahydro-2H-pyran-4-yl)-1H-pyrazolo[4,3-c]quinoline-4(5H)-one [Example 2d]", "values": [{"measurement": "% hippocampal cGMP increase from vehicle control", "setting": "[1]", "result": 23, "unit": "%"}, {"measurement": "% CSF cGMP increase from vehicle control", "setting": "[2]", "result": 183, "unit": "%"}, {"measurement": "IC50", "setting": "[3]", "result": 1.3, "unit": "nM"}]}, {"molecule": "COc1nc(C)cc(C)c1-c1ccc2c(c1)[nH]c(=O)c1cnn([C@@H]3CCOC[C@@H]3C)c12", "note": "(single isomer, unassigned) [Example 2c, (+)-7-(2-Methoxy-4,6-dimethylpyridin-3-yl)-1-((3R*,4R*)-3-methyltetrahydro-2H-pyran-4-yl)-1H-pyrazolo[4,3-c]quinoline-4(5H)-one]", "values": [{"measurement": "IC50", "setting": "[3]", "result": 12.3, "unit": "nM"}]}, {"molecule": "COc1nc(C)cc(C)c1-c1ccc2c(c1)[nH]c(=O)c1cnn([C@@H]3CCOC[C@@H]3C)c12", "note": "(single isomer, unassigned) [Example 2b, (−)-7-(2-Methoxy-4,6-dimethylpyridin-3-yl)-1-((3R*,4R*)-3-methyltetrahydro-2H-pyran-4-yl)-1H-pyrazolo[4,3-c]quinoline-4(5H)-one]", "values": [{"measurement": "IC50", "setting": "[3]", "result": 3.7, "unit": "nM"}]}, {"molecule": "COc1ncc(C)c(-c2ccc3c(c2)[nH]c(=O)c2cnn([C@H]4CC[C@H](OC)CC4)c23)c1C", "note": "[Example 5b, 7-(2-methoxy-3,5-dimethylpyridin-4-yl)-1-(trans-4-methoxycyclohexyl)-1H-pyrazolo[4,3-c]quinoline-4(5H)-one]", "values": [{"measurement": "% hippocampal cGMP increase from vehicle control", "setting": "[1]", "result": 41, "unit": "%"}, {"measurement": "% CSF cGMP increase from vehicle control", "setting": "[2]", "result": 167, "unit": "%"}, {"measurement": "IC50", "setting": "[3]", "result": 12.7, "unit": "nM"}]}, {"molecule": "(−)-7-(6-Methoxy-2,4-dimethylpyridin-3-yl)-1-((3R*,4S*)-3-methyltetrahydro-2H-pyran-4-yl)-1H-pyrazolo[4,3-c]quinoline-4(5H)-one [Example 1d]", "values": [{"measurement": "% hippocampal cGMP increase from vehicle control", "setting": "[1]", "result": 61, "unit": "%"}, {"measurement": "% CSF cGMP increase from vehicle control", "setting": "[2]", "result": 206, "unit": "%"}, {"measurement": "IC50", "setting": "[3]", "result": 6.9, "unit": "nM"}]}, {"molecule": "(+)-7-(2-methoxy-4,6-dimethylpyridin-3-yl)-1-((3R*,4S*)-3-methyltetrahydro-2H-pyran-4-yl)-1H-pyrazolo[4,3-c]quinoline-4(5H)-one [Example 2a]", "values": [{"measurement": "IC50", "setting": "[3]", "result": 11.6, "unit": "nM"}]}]}
